“Also recorded” adds a separate entry of the source. Like-named read-outs stand apart in the source and are kept apart here.
Key:
[1] = target: GABAC (ρ1) receptor (Homo sapiens, UniProt P24046); assay: Two-electrode voltage clamp at GABAC (ρ1) receptors expressed in Xenopus oocytes; conditions: for current response to compound in the presence of GABA: 100 μM compound + 1 μM GABA; for current response to compound in the presence of GABA / response to compound alone / current response to GABA alone: FIG. 11(a); for response to compound alone: 100 μM compound alone; for Hill coefficient (nH) for GABA in the presence of the antagonist / I/Imax, maximal GABA response maintained in the presence of the antagonist: (±)-cis 40 μM or (±)-trans 30 μM; for I/Imax, maximal GABA response maintained in the presence of the antagonist / type of antagonism: FIG. 12; for type of antagonism: parallel shift of the GABA dose-response curves; for inhibition at 100 µM: read-out: inhibition of the GABA response
Sequence of GABAC (ρ1) receptor (P24046 22-479): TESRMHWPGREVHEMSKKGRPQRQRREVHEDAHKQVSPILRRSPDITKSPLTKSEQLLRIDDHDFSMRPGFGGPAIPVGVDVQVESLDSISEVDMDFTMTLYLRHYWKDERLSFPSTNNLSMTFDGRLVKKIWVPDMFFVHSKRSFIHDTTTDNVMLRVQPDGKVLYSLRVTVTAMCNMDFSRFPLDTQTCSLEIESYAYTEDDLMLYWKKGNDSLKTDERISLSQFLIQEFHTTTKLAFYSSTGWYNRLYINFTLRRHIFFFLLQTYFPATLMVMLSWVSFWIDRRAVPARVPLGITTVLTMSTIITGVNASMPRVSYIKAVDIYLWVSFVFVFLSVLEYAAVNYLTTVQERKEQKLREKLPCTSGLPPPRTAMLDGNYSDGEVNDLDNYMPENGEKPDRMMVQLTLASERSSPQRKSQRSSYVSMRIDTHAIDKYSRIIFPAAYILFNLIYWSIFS
Experimental: (§1) For example, ρ1 GABAC receptor subunit subcloned in ρ1 cDNA 1.1 and is linearised using the restriction enzyme Xbal . Following this, the mRNA is then prepared from the linearised ρ1 subunit using T7 polymerase. This genetic material is then injected into the Xenopus laevis oocytes and incubated for 2 to 9 days, to allow for the process of translation to occur. After this process the Xenopus laevis oocytes show expression of the receptor and ion channel assembly on the cell surface.
(§2) Female Xenopus laevis frogs were anaesthetised with tricaine (850 mg/500 mL) and a lobe of their ovaries surgically removed. […] Stage V-VI oocytes were collected and stored in Frog Ringer (ND96) wash solution (96 mM NaCI, 2 mM KCI, 1 mM MgCl2.6H20, 1.8 mM CaCl2.2H2O, 5 mM HEPES (hemi-Na salt), pH 7.5) supplemented with 2.5 mM sodium pyruvate, 0.5 mM theophylline, and 50 μg/mL gentamicin.
(§3) Micropipettes were prepared by the microprocessor-controlled vertical pipette puller (World Precision Instruments) and bevelled to a tip diameter of 10-20 μm. The micropipettes were filled with mineral oil to ensure the mRNA solution would be drawn up into the micropipette under negative pressure. A Nanoject injector (World Precision Instruments) was used to deliver GABAA, GABAB or GABAC mRNA (50 nL) into the cytoplasm of the Xenopus oocytes. After injection with the appropriate mRNA, the oocytes were placed in a storage solution of ND96 wash solution supplemented with 2.5 mM sodium pyruvate, 0.5 mM theophylline and gentamicin (50 μg/mL) and stored on a slow speed rotator in an 18° C. controlled temperature incubator (Contherm, Petone, NZ). The storage solution was changed daily (or twice daily) and dead or unhealthy oocytes were removed to prolong the health of the remaining cells.
(§4) Prior to recording, 100 mM stock solutions of (±)-cis- and (±)-trans-3-ACPBPA were prepared using autoclaved MilliQ water and stored at −20° C. […] At the time the experiments were to be recorded, the stock solutions were diluted with ND96 wash solution for testing on GABAA and GABAC receptors or 45 mM K^+ solution (45 mM NaCI, 45 mM KCI, 1 mM MgCl2.6H2O, 1.8 mM CaCl2.2H2O, 5 mM HEPES (hemi-Na salt), pH 7.5 at 25° C.) for testing on GABAB receptors.
(§5) After 2 to 9 days of incubation, receptor activity using two-electrode voltage clamp recordings were acquired by means of a Geneclamp 500 amplifier (Axon Instruments Inc., Foster City, Calif., USA), a MacLab 2e recorder (AD Instruments, Sydney, Australia) and Chart™ v.3.6.3 for Macintosh (AD Instruments) to digitise the current and voltage signals.
(§6) The recording microelectrodes were prepared from borosilicate glass capillaries (1.2 mm i.d.×0.94 mm o.d.; Clark Electromedical Instruments, Pangbourne, UK) using a micropipette puller (World Precision Instruments). The microelectrodes (tip resistances 0.5-1.5 MΩ) were filled with 3 M potassium chloride and a microscope was used to direct the insertion of these microelectrodes into the oocyte positioned in the cell bath. The membrane potential of the oocyte was then voltage-clamped at −60 mV.
(§7) Oocytes with an adequate level of receptor expression (with maximal currents (I)≧50 nA) were used for subsequent recording. […] Oocytes were washed for 3-4 minutes between applications of drug doses to ensure for receptor recovery.

[2] = target: T1, GABAB (1a,2) receptor (Homo sapiens, UniProt Q9UBS5); assay: Two-electrode voltage clamp at GABAB (1a,2) receptors co-expressed with GIRK1 and GIRK4 in Xenopus oocytes; assay type: cell-based; conditions: for effect as agonist or antagonist: 300 μM compound; for current response to compound in the presence of GABA: 300 μM compound + 3 μM GABA; for current response to compound in the presence of GABA / response to compound alone: FIG. 10(b); for response to compound alone: 300 μM compound alone
T1 construct: expressed in transfected cells; host or cells: Xenopus laevis oocytes injected with mRNA

[3] = target: GABAC (ρ2) receptor (Homo sapiens, UniProt P28476); assay: Two-electrode voltage clamp at GABAC (ρ2) receptors expressed in Xenopus oocytes; conditions: for current response to compound in the presence of GABA: 100 μM compound + 1 μM GABA; for current response to compound in the presence of GABA / response to compound alone / current response to GABA alone: FIG. 11(b); for response to compound alone: 100 μM compound alone; for inhibition at 100 µM: read-out: inhibition of the GABA response
Sequence of GABAC (ρ2) receptor (P28476 21-465): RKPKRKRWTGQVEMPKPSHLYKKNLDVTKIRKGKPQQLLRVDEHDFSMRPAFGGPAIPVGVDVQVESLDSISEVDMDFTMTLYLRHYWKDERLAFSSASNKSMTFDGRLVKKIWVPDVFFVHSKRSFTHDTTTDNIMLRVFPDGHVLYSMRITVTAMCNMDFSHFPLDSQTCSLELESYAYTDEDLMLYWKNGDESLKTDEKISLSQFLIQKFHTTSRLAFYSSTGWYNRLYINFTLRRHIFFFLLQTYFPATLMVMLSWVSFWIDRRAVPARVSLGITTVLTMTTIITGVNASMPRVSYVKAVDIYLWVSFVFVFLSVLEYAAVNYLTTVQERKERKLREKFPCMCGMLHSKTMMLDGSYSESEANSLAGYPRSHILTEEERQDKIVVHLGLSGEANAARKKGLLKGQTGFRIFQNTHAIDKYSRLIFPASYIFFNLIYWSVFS
Experimental: as §1, §2, §3, §4, §5, §6, §7

[4] = target: T2, GABAC (ρ3) receptor (Rattus norvegicus, UniProt P50573); assay: Two-electrode voltage clamp at GABAC (ρ3) receptors expressed in Xenopus oocytes; conditions: for current response to compound in the presence of GABA: 100 μM compound + 10 μM GABA; for response to compound alone: 100 μM compound alone; for inhibition at 100 µM: read-out: inhibition of the GABA response
T2 sequence (P50573 16-464): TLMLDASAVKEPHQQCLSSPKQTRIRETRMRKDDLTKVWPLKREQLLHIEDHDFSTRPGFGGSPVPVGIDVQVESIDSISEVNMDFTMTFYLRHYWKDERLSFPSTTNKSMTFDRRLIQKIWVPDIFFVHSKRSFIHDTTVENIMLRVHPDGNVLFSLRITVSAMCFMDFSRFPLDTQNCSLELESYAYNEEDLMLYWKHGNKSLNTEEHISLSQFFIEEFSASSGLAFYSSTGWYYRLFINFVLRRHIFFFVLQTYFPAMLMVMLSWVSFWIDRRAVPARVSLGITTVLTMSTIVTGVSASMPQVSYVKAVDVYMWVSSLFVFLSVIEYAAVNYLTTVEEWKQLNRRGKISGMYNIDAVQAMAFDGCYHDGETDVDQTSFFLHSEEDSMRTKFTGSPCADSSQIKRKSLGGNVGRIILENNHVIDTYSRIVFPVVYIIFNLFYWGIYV
Experimental: as §1, §2, §3, §4, §5, §6, §7

[5] = target: GABAB receptor (Homo sapiens, UniProt Q9UBS5); assay: Two-electrode voltage clamp at GABAB receptors (subtype not stated) expressed in Xenopus oocytes; conditions: for effect as agonists or antagonists: 300 μM compound; for inhibition at 1000 µM: read-out: inhibition of 1 μM GABA (weak antagonist effect); for EC50: read-out: EC50 as GABAB receptor agonist
Sequence of GABAB receptor (Homo sapiens, UniProt Q9UBS5) (Q9UBS5 20-961): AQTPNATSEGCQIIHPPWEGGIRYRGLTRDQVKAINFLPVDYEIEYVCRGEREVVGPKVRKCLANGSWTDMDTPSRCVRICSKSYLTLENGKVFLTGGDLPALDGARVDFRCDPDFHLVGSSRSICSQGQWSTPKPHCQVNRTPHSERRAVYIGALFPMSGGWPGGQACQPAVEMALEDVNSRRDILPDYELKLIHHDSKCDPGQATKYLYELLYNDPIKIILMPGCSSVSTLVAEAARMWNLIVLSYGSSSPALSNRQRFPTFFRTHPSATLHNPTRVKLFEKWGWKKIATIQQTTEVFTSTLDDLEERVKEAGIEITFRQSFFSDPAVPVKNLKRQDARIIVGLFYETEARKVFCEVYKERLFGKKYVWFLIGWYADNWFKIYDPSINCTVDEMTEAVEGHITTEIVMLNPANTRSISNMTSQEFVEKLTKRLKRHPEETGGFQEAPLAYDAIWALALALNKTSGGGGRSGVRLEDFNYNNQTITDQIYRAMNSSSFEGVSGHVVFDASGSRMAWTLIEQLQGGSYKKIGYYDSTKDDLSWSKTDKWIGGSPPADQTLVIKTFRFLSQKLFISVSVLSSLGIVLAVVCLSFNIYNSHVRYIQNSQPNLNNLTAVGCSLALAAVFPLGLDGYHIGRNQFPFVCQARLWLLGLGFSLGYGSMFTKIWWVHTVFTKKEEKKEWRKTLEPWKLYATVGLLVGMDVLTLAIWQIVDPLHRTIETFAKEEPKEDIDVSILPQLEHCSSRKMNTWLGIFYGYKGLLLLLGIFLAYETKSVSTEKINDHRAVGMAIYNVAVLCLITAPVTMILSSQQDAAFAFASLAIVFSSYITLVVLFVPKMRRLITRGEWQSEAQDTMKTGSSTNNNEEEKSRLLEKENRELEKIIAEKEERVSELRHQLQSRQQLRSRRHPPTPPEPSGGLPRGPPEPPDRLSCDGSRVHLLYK
Sequence of GABAB receptor (Homo sapiens, UniProt Q9UBS5) (O75899 42-941 partner): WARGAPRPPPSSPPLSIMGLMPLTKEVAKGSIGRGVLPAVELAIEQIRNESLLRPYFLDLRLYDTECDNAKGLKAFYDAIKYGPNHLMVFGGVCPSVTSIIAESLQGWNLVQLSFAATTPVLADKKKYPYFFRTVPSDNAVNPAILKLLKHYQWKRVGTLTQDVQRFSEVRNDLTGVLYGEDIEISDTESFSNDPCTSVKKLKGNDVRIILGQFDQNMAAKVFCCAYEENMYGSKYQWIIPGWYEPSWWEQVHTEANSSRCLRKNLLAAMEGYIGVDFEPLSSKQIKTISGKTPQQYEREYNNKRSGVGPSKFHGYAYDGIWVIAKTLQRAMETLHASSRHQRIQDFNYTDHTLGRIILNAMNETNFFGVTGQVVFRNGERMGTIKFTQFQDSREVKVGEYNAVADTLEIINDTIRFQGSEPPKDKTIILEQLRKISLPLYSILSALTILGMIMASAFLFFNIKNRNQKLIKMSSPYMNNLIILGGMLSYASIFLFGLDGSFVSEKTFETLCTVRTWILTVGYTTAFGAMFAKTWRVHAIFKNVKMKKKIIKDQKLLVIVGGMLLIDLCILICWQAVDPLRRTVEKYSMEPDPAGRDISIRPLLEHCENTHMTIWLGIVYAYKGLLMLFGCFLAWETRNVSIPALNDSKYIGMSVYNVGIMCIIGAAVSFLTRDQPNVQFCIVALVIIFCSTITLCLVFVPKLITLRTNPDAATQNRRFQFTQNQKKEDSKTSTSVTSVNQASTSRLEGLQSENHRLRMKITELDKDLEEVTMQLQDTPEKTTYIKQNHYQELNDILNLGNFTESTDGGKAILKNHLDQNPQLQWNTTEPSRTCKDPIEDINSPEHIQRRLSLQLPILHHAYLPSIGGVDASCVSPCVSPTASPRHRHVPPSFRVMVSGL

[6] = target: T3, GABAB (1b,2) receptor (Homo sapiens, UniProt Q9UBS5); assay: Two-electrode voltage clamp at GABAB (1b,2) receptors co-expressed with GIRK1 and GIRK4 in Xenopus oocytes; assay type: cell-based; conditions: for effect as agonist or antagonist: 300 μM compound; for current response to compound in the presence of GABA: 300 μM compound + 1 μM GABA; for current response to compound in the presence of GABA / response to compound alone: FIG. 10(a); for response to compound alone: 300 μM compound alone
T3 construct: expressed in transfected cells; host or cells: Xenopus laevis oocytes injected with mRNA
T3 sequence (Q9UBS5 1-844 isoform Q9UBS5-2): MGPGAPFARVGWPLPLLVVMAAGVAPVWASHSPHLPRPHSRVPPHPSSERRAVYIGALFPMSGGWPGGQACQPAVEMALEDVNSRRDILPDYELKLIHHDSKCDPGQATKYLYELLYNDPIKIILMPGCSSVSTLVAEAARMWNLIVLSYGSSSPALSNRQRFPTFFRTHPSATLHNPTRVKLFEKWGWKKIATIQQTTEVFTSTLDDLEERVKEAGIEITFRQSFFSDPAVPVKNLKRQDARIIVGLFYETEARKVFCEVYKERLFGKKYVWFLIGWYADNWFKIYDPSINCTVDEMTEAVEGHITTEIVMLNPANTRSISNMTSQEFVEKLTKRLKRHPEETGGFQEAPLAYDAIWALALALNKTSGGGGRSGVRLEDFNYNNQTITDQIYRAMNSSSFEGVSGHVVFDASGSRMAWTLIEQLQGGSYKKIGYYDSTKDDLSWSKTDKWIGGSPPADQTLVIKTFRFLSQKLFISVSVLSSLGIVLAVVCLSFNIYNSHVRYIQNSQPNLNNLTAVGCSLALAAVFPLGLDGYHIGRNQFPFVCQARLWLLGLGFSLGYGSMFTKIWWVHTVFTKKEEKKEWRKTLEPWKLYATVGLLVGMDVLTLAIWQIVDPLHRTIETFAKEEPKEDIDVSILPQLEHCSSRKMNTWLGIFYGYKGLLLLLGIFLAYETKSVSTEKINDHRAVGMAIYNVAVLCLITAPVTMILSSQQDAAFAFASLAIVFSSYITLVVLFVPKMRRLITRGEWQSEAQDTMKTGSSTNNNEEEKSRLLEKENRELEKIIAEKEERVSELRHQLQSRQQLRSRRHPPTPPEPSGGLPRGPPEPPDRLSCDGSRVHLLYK
T3 sequence (O75899 42-941 partner): as the sequence (O75899 42-941 partner) above

[7] = target: GABAA (α2β2γ2s) receptor (Homo sapiens, UniProt P47869+P47870); assay: Two-electrode voltage clamp at GABAA (α2β2γ2s) receptors expressed in Xenopus oocytes; conditions: for effect as agonist or antagonist: 1 mM compound; for current response to compound in the presence of GABA: 1 mM compound + 3 μM GABA; for current response to compound in the presence of GABA / response to compound alone / current response to GABA alone: FIG. 9; for response to compound alone: 1 mM compound alone; for current response to GABA alone: oocyte clamped at −60 mV
Sequence of GABAA (α2β2γ2s) receptor (P47869 29-451): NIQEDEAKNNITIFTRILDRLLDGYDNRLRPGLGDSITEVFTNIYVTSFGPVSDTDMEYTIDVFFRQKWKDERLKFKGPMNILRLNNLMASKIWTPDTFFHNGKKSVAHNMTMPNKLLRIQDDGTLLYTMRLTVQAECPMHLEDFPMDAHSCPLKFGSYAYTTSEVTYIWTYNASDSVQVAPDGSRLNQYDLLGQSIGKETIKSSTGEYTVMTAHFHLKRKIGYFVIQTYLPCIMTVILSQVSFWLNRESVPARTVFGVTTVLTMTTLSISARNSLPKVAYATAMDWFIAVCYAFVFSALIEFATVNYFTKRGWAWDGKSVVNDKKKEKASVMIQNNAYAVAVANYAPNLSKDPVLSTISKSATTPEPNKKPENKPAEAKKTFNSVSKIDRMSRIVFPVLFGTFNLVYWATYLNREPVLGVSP
Sequence of GABAA (α2β2γ2s) receptor (P47870 25-512 limits assumed): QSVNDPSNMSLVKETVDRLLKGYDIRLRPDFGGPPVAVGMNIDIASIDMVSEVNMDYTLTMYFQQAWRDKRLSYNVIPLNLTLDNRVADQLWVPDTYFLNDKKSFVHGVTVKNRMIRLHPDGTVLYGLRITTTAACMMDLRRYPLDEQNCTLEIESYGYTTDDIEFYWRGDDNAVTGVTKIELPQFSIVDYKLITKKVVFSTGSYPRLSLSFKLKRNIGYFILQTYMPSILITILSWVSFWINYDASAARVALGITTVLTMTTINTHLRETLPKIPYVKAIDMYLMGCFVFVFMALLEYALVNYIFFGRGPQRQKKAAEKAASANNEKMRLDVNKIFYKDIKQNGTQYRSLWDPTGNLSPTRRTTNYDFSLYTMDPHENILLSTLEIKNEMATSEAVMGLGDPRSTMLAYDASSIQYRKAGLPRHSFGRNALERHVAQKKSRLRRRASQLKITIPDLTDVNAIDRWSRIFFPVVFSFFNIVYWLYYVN
Sequence of GABAA (α2β2γ2s) receptor (P18507 40-467 isoform P18507-1 partner limits assumed): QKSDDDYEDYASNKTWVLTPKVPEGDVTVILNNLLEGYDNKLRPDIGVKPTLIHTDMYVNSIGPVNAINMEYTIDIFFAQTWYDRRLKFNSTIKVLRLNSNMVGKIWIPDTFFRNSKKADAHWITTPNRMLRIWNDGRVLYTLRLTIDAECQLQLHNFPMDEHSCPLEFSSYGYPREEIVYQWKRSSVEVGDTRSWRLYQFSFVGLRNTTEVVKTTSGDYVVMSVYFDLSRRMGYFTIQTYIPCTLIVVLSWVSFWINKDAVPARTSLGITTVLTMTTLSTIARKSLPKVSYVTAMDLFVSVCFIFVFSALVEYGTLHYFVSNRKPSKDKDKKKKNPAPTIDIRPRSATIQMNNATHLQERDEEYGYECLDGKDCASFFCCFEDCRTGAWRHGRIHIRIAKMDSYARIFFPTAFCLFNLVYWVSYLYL
Experimental: as §1, §2, §3, §4, §5, §6, §7

[8] = target: GABAC receptors; conditions: Woodward et al, 1993; read-out: KB as antagonist at GABAC receptors; cited from earlier work
[9] = tested on: GABAA receptors; conditions: TPMPA 300 μM; cited from earlier work
[10] = target: T4, GABAC receptor (Homo sapiens, UniProt P24046); conditions: cited from earlier work
T4 sequence (P24046 22-479): as the sequence (P24046 22-479) above

[11] = tested on: GABAB receptor; conditions: dose of 500 μM; cited from earlier work
[12] = target: T4, GABAC receptor; assay: Activity of ACPMPA isomers as GABAC receptor antagonists (subtype not stated), as for ACPBPA; assay type: cell-based; parameters: expressed in transfected cells; conditions: for Kb: read-out: KB as GABAC receptor antagonist
[13] = tested on: GABAA receptors; assay: Activity of ACPMPA isomers at GABAA receptors (subtype not stated), as for ACPBPA; assay type: cell-based; conditions: for reduction of the current produced by GABA (10 μM): 300 μM compound

CCCCP(=O)(O)[C@H]1CC[C@@H](N)C1 (racemic) [(±)-cis-3-ACPBPA, (±)-cis-(3-aminocyclopentanyl)butylphosphinic acid]
Kb [1]: 12.5 ± 1.2 µM
antagonist activity in words [1]: potent antagonists
current response to compound in the presence of GABA [1]: 2 nA
response to compound alone [1]: no recordable response
Hill coefficient (nH) for GABA in the presence of the antagonist [1]: 2.3±0.2
I/Imax, maximal GABA response maintained in the presence of the antagonist [1]: 0.91±0.02
type of antagonism [1]: competitive antagonists
potency relative to (±)-trans-3-ACPBPA ([1]; ratio of estimated KB values): 3.5 times
inhibition at 100 µM [1]: ~100%
Kb [2]: > 300 µM
effect as agonist or antagonist [2]: did not act as an agonist or antagonist; also recorded: no apparent effect as an agonist or antagonist; also recorded: no effect as agonists or antagonists; also recorded: No effect
current response to compound in the presence of GABA [2]: 405 nA
response to compound alone [2]: no response was detected
antagonist activity in words [3]: potent antagonists
current response to compound in the presence of GABA [3]: 4 nA
response to compound alone [3]: no detectable response
inhibition at 100 µM [3]: ~100%
antagonist activity in words [4]: potent antagonists
current response to compound in the presence of GABA ([4]; FIG. 11(c)): 120 nA
response to compound alone ([4]; FIG. 11(c)): no measurable response
inhibition at 100 µM [4]: 85%
Kb [5]: > 1000 µM
effect as agonists or antagonists [5]: no effect as agonists or antagonists
inhibition at 1000 µM [5]: 10%
Kb [6]: > 300 µM
effect as agonist or antagonist [6]: did not act as an agonist or antagonist; also recorded: no apparent effect as an agonist or antagonist; also recorded: no effect as agonists or antagonists; also recorded: No effect
current response to compound in the presence of GABA [6]: 20 nA
response to compound alone [6]: no response was detected
effect as agonist or antagonist [7]: did not act as an agonist or antagonist; also recorded: no effect as an agonist or antagonist; also recorded: no effect as an agonist or an antagonist; also recorded: No effect
current response to compound in the presence of GABA [7]: 65 nA
response to compound alone [7]: no response was detected

CCCCP(=O)(O)[C@@H]1CC[C@@H](N)C1 (racemic) [(±)-trans-3-ACPBPA, (±)-trans-(3-aminocyclopentanyl)butylphosphinic acid]
Kb [1]: 43.8 ± 5.1 µM
antagonist activity in words [1]: potent antagonists
current response to compound in the presence of GABA [1]: 34 nA
response to compound alone [1]: no detectable response
Hill coefficient (nH) for GABA in the presence of the antagonist [1]: 2.2±0.2
I/Imax, maximal GABA response maintained in the presence of the antagonist [1]: 0.94±0.05
type of antagonism [1]: competitive antagonists
inhibition at 100 µM [1]: 77%
Kb [2]: > 300 µM
effect as agonist or antagonist [2]: did not act as an agonist or antagonist; also recorded: no apparent effect as an agonist or antagonist; also recorded: no effect as agonists or antagonists; also recorded: No effect
current response to compound in the presence of GABA [2]: 407 nA
response to compound alone [2]: no detectable response
antagonist activity in words [3]: potent antagonists
current response to compound in the presence of GABA [3]: 17 nA
response to compound alone [3]: no measurable response
inhibition at 100 µM [3]: 32%
antagonist activity in words [4]: potent antagonists
current response to compound in the presence of GABA ([4]; FIG. 11(c)): 455 nA
response to compound alone ([4]; FIG. 11(c)): no visible response
inhibition at 100 µM [4]: 45%
Kb [5]: > 1000 µM
effect as agonists or antagonists [5]: no effect as agonists or antagonists
inhibition at 1000 µM [5]: 10%
Kb [6]: > 300 µM
effect as agonist or antagonist [6]: did not act as an agonist or antagonist; also recorded: no apparent effect as an agonist or antagonist; also recorded: no effect as agonists or antagonists; also recorded: No effect
current response to compound in the presence of GABA [6]: 15 nA
response to compound alone [6]: no detectable response
effect as agonist or antagonist [7]: did not act as an agonist or antagonist; also recorded: no effect as an agonist or antagonist; also recorded: no effect as an agonist or an antagonist; also recorded: No effect
current response to compound in the presence of GABA [7]: 60 nA
response to compound alone [7]: no detectable response

NCCCP(=O)(O)O [3-APA, 3-aminopropylphosphonic acid]
Kb [8]: 1.8 µM

NCCC[PH](=O)O [CGP27492, 3-aminopropylphosphinic acid]
Kb [8]: 0.8 µM

CP(=O)(O)CCCN [CGP35024, (3-aminopropyl)methylphosphinc acid]
Kb [8]: 0.8 µM

NCCCC(=O)O [GABA, γ-Aminobutyric acid, reference compound]
current response to GABA alone ([1]; GABA 1 μM): 105 nA
current response to GABA alone ([1]; GABA 10 μM): 142 nA
Hill coefficient (nH) for GABA alone ([1]; GABA dose-response curve): 1.9±0.3
current response to GABA alone ([3]; GABA 1 μM): 23 nA
current response to GABA alone ([3]; GABA 100 μM): 35 nA
current response to GABA alone ([4]; GABA 10 μM, FIG. 11(c)): 880 nA
current response to GABA alone ([7]; GABA 3 μM): 65 nA
current response to GABA alone ([7]; GABA 300 μM): 1180 nA

CP(=O)(O)C1=CCNCC1 [TPMPA]
reduction of the current produced by GABA (10 μM) [9]: 67%
selectivity for GABAC than GABAA receptors [10]: 100 times
selectivity for GABAC than GABAB receptors [10]: 500 times
activation of the GABAB receptor [11]: about 30%

(±)-cis-(3-Aminocyclopentanyl)methylphosphinic acid [(±)-cis-3-ACPMPA]
selectivity for GABAC than GABAA receptors [12]: more than 100 times
selectivity for GABAC than GABAB receptors [12]: 50 times
times more potent than (±)-cis-3-ACPBPA at the GABAC receptors [12]: 12 times
times more potent than TPMPA [12]: 2 times
Kb [12]: 1 µM
GABAB agonist activity in words [5]: moderately potent GABAB receptor agonists
EC50 [5]: 50 µM
GABAA antagonist activity in words [13]: very weak activity as antagonists
reduction of the current produced by GABA (10 μM) [13]: 8%

(±)-trans-(3-Aminocyclopentanyl)methylphosphinic acid [(±)-trans-3-ACPMPA]
selectivity for GABAC than GABAA receptors [12]: 45 times
selectivity for GABAC than GABAB receptors [12]: 24 times
times less potent than TPMPA [12]: 3 times
Kb [12]: 6.6 µM
GABAB agonist activity in words [5]: moderately potent GABAB receptor agonists
EC50 [5]: 160 µM
GABAA antagonist activity in words [13]: very weak activity as antagonists
reduction of the current produced by GABA (10 μM) [13]: 11%
